Assay results published in patent US12325710B2, “Substituted 1,2,3,4,5,6-hexahydroazepino[4,5-b]indoles for treating brain disorders” (priority 2019, dated 2025).
Entries after “also recorded” stand apart in the source; their conditions may differ.

What was measured:
physchem = conditions: saline or isotonic
[1] = test system: mouse primary sensory cortex; assay: In vivo spine dynamics, transcranial 2-photon imaging; conditions: 24 h after i.p. dose; TBG 50 mg/kg, DOI 10 mg/kg
Method: In Vivo Spine Dynamics. Male and female Thy1-GFP-M line mice (n=5 per condition) were purchased from The Jackson Laboratory (JAX #007788) and maintained in UCSC animal facilities according to an IACUC approved protocol. In vivo transcranial two-photon imaging and data analysis were performed as previously described. Briefly, mice were anesthetized with an intraperitoneal (i.p.) injection of a mixture of ketamine (87 mg/kg) and xylazine (8.7 mg/kg). A small region of the exposed skull was manually thinned down to 20-30 μm for optical access. Spines on apical dendrites in mouse primary sensory cortices were imaged using a Bruker Ultima IV two-photon microscope equipped with an Olympus water-immersion objective (40×, NA=0.8) and a Ti:Sapphire laser (Spectra-Physics Mai-Tai, excitation wavelength 920 nm). Images were taken at a zoom of 4.0 (pixel size 0.143×0.143 μm) and Z-step size of 0.7 μm. The mice received an i.p. injection (injection volume=5 mL/kg) of DOI (10 mg/kg) or TBG (50 mg/kg) immediately after they recovered from anesthesia given prior to the first imaging session. The animals were re-imaged 24 h after drug administration. Dendritic spine dynamics were analyzed using ImageJ. Spine formation and elimination were quantified as percentages of spine number on day 0.

[2] = test system: rat embryonic cortical neurons (DIV20); assay: Spinogenesis in mature cortical cultures (DIV20); type: cell-based; conditions: DIV20, treatment for 24 h
Method: Spinogenesis Experiments. Spinogenesis experiments were performed as previously described with the exception that cells were treated on DIV19 and fixed 24 h after treatment on DIV20. (Ly, C. et al., 2018) The images were taken on a Nikon HCA Confocal microscope a with a 100×/NA 1.45 oil objective. DMSO and ketamine (10 μM) were used as vehicle and positive controls, respectively.

C57/BL6J mice = assay: Two-bottle choice alcohol consumption (binge drinking); type: in vivo, mouse
Method: Alcohol Consumption. Male C57/BL6J mice (6-8 weeks old) were obtained from The Jackson Laboratory (Bar Harbor, ME) and were individually housed in a reverse light/dark cycle room (lights on […]). Temperature was kept constant at 22±2° C., and relative humidity was maintained at 50±5%. Mice were given access to food and tap water ad libitum. After one week of habituation to the vivarium, the two-bottle choice alcohol-drinking paradigm was conducted as described previously. For 7 weeks, mice were given intermittent access in their home cage to alcohol. On Mondays, Wednesdays, and Fridays, two bottles were made available for 24 h—one containing 20% ethanol and another containing only water. On Tuesdays, Thursdays, Saturdays, and Sundays, the animals were only given access to water. After 7 weeks, mice were administered TBG (50 mg/kg) or vehicle (saline) via intraperitoneal injection 3 h before the beginning of a drinking session. Ethanol (g/kg) and water (ml/kg) intake were monitored during the first 4 h (initial binge), the first 24 h, and the second 24 h. Next, the animals were only given water for 48 h before the start of another drinking session when ethanol and water consumption was monitored. The placement (right or left) of the bottles was altered in each session to control for side preference. Spillage was monitored using an additional bottle in a nearby unused cage. Alcohol preference was calculated as the ratio between alcohol/(water+alcohol). Mice were tested using a counterbalanced, within subject design with one week of drug-free alcohol drinking regimen between treatments. One mouse was excluded because the bottle was leaking.

larval zebrafish = assay: Larval zebrafish movement activity during a battery of light and acoustic stimuli
Description: Stimuli applied over time are indicated under the heatmaps. Colors indicate bright LED light of respective colors, black traces represent the waveforms of acoustic stimuli, and gray vertical lines indicate physical tapping as secondary acoustic stimuli.
Response is […] proportional to classification accuracy; 0-20% indicates no ability and 100% indicates perfect classification. […] The solid line denotes the median and the shading denotes a 95th percentile confidence interval calculated by bootstrap. N=8 wells/condition (64 animals/condition).

[3] = test system: rat embryonic cortical neurons; assay: Dendritogenesis (Sholl analysis) in cultured cortical neurons; type: cell-based
Method: Embryonic rat cortical neurons were treated for a short period of time (1 h) followed by a suitable growth period (71 h) to measure the psychoplastogenic effects of the compounds described herein. […] Therefore, the effects of ibogalogs 8-17 on dendritic growth was assessed.
Dendritogenesis Experiments. For the dendritogenesis experiments conducted using cultured cortical neurons, timed pregnant Sprague Dawley rats were obtained from Charles River Laboratories (Wilmington, MA). Full culturing, staining, and analysis details were performed as previously described. (Dunlap, L. et al., 2019)

COc1ccc2c3c([nH]c2c1)CCN(C)CC3 [TBG]
solubility (physchem): ≥ 40 mg/mL
spine elimination [1]: no effect on spine elimination; also recorded: Neither TBG nor DOI affected spine elimination
spine formation [1]: increased spine formation
dendritic spine density [2]: increases dendritic spine density to a comparable extent as ibogaine
EtOH consumption in the days following administration (C57/BL6J mice; TBG 50 mg/kg i.p.): long-lasting decreases in EtOH consumption; also recorded: lower for at least two days
EtOH preference during binge drinking session (C57/BL6J mice; TBG 50 mg/kg i.p.): reduces EtOH consumption and preference
water intake (C57/BL6J mice; TBG 50 mg/kg i.p.): without impacting H2O intake; also recorded: not affected
EtOH consumption during binge drinking session (C57/BL6J mice; first 4 h, TBG 50 mg/kg i.p. 3 h before session): reduces EtOH consumption and preference; also recorded: robustly reduces binge drinking
behavioral phenotype at highest concentration versus lethal control (larval zebrafish; 200 μM): did not produce this phenotype
behavioral phenotype with increasing concentration versus vehicle and lethal control (eugenol, 100 μM) (larval zebrafish; 1 h treatment, concentration-response): do not produce movement responses in larval zebrafish similar to a lethal concentration of eugenol
machine learning classification of movement responses (larval zebrafish; highest concentrations (200 μM)): more similar to vehicle controls than to ibogaine, noribogaine, or lethal controls
dendritic arbor complexity (Sholl analysis, Nmax) ([3]; DIV6): increased dendritic arbor complexity
effect on dendritic growth after pretreatment with ketanserin (5-HT2A antagonist) ([3]; ketanserin pretreatment): blocked by the 5-HT2A antagonist ketanserin; also recorded: completely abrogated its effects
